Test results taken from patent publication US20210068400A1, “COMPOSITIONS CONTAINING COMBINATIONS OF NITROGEN-FIXING BACTERIA AND ADDITIONAL AGENTS AND THEIR USE IN FIXING NITROGEN IN PLANT SPECIES” (GRACE BREEDING NITROGEN FIXATION TECHNOLOGIES LTD., priority 2018, published 2021).
Several values for one entry are separate records, joined by “and”; a condition that tells them apart may be missing. Equal entries are not always repeated. Values belong to the compound of their own block, whether it stands above or below them.

Legend:
[1] = system: maize plants; assay: Maize field trial 3, growth parameters (Example 3); type: in vivo, maize (Zea mays); conditions: 3 months after sowing
Procedure: In some of the treatments (as explained hereinbelow), some or all of the active substances were added in the form of granules to the furrow in which the plants had been seeded. The granules were prepared by soaking 1 kg of Perlite granules (having a mean diameter greater than 2 mm) in the following solution: • 50 ml of the concentrated activating agent emulsion (as described above). • 930 ml water. • 10 ml Rhizobium leguminosarum biovar viceae (Cell-Tech™ granular; Monsanto Company) (Granule-R). or Bacillus subtilis (Granule-B) • 10 ml Calirus. • 1000 ml total
This trial was sown during the Israeli growing season of 2018 using the pioneer maize silage variety number W86. The field was washed from possible nitrogen using sprinklers irrigation. The combination treatments administered to the plants which are of relevance for the present study were: • A. Positive Control—full commercial nitrogen. The plants were treated with 30 units of nitrogen per 1000 m^2 by means of applying to this area 60 kg urea containing 46% urea. • B. Negative Control—no added nitrogen. • C. Rhizobium leguminosarum biovar viceae, 3% (containing 10^9 organisms) was added to the activating agent emulsion described in ‘general methods’ hereinabove, to which Calirus (1%) was also added. Perlite granules were soaked with this mixture as described hereinabove. The granules were added to the sowing trench at a density of 2 Kg granules per 1000m^2. • D. As for treatment C, but with the granule quantity adjusted to 1 Kg granules per 1000 m^2. • E. As for treatment C, but with the granule quantity adjusted to 4 Kg granules per 1000 m^2.
The following parameters were monitored at one timepoint during growth of the maize plants, 3 months after they were sown: • Plant stem caliber • Leaf width • Cob weight (taken from the main stems of 10 plants) • Total plant weight (10 plants) • Plant height
The statistical significance of the difference between the various treatment groups was determined using the Tukey-Kramer HSD test.

[2] = system: maize plants; assay: Maize field trial 4, total leaf nitrogen content (Example 4); type: in vivo, maize (Zea mays); conditions: maize leaves, 3 months after sowing
Procedure: Generally, the nitrogen content of the growing plant in the field study was measured using a spectrophotometric method based on the standard method “4500-NO3_I. Cadmium Reduction Flow Injection Method” published by the Standard Methods Organization (<https://www.standardmethods.org/doi/full/10.2105/SMWW.2882.089). This method is based on the conversion of nitrates in an aqueous plant material extract to nitrites by passing the extract through a copperized cadmium column. Subsequent processing steps convert the nitrites to a magenta-colored dye having an absorbance peak at 540 nm.
This trial was sown during the Israeli growing season of 2018 using the pioneer maize silage variety number W86. The field was washed from possible nitrogen using sprinkler irrigation. The combination treatments administered to the plants which are of relevance for the present study were: • PC. Positive Control—full commercial nitrogen. The plants were treated with 30 units of nitrogen per 1000 m^2 by means of applying to this area 60 kg urea containing 46% urea. • NC. Negative Control—no nitrogen. • 1. […]
The average total leaf nitrogen content was measured at one timepoint during growth of the maize plants, 3 months after sowing.

[3] = system: wheat (Galil variety); assay: Wheat field trial 5 (Example 5); type: in vivo
Procedure: Two different agricultural sites in Israel were selected for field trials in which the effects of compositions of the present invention on wheat crops were investigated. The various compositions were administered to the growing wheat (Galil variety) as described in Examples 3 and 4, hereinabove. The treatments used in this study are as follows:
B. Negative control (no nitrogen source)
A. Granules prepared according to Example 3, applied at a density of 4 kg granules per 1000 m^2.
C. Granules prepared according to Example 3, applied at a density of 2 kg granules per 1000 m^2.
F. Positive control—full commercial nitrogen. The plants were treated with 30 units of nitrogen per 1000 m^2 by means of applying to this area 60kg urea containing 46% urea.
The following parameters were measured in the wheat, in order to assess the effect of the treatment compositions on plant growth: […]

[4] = system: Tomato seedlings inoculated with bacterial and fungal cocktails; assay: Inoculation of tomato seedlings; type: in vivo; conditions: 5 days following treatment; concentration 3; FIG. 31
Procedure: Tomato seedlings were inoculated with 10 cc of each test mixtures containing Rhizobium species and various combinations of activating phytochemicals. (including the bacterial and fungal cocktails described below) […].
The health of each plant was assessed 5 days following treatment, using a semi-quantitative inoculation index (0=healthy, 5=dead).
The composition and concentration of the various test mixtures, as well as the number of different activating agents used in combination are summarized in the following two tables (all concentrations are given as % v/v): […]

[5] = system: NO production; assay: Inhibition of NO production in activated RAW 264.7 macrophages (Griess assay); type: cell-based; conditions: Mus musculus, RAW264.7, 24 h, RAW 264.7 macrophages activated with LPS and IFN-γ
Procedure: RAW 264.7 macrophages were grown in flat-bottomed flasks using a standard growth medium (DMEM supplemented with 5% FBS, antibiotics and glutamine. The cells were maintained in accordance with standard procedures well known in the art. After the cells reached confluence, they were removed from the flasks using mechanical means and then concentrated by centrifuging and resuspended in a small volume of fresh culture medium. The cell concentration was adjusted with growth medium in order that about 75,000 cells could be added to each well of a 96-well plate. A combination of 25 μg/mL LPS and 10 U/ml IFN-γ DMEM, was used for activation of the macrophages. The various test agents were added to the wells one hour prior to activation. The cells were then incubated for a further 24 hours, prior to assaying the inflammatory mediator production and cell viability. The production of NO by the macrophages subjected to the various treatments was assayed using the Griess reagent (equal volumes of 1% sulphanilamide and 0.1% […]-diamine in 5% HCl). 70 μl of supernatant from each test well was transferred to a fresh 96-well plate and mixed with 70 μL of Griess reagent and the violet color produced was measured at 540 nm.

[6] = system: TNF-α production; assay: Inhibition of TNF-α production in activated RAW 264.7 macrophages (ELISA); type: cell-based; conditions: Mus musculus, RAW264.7; RAW 264.7 macrophages activated with LPS and IFN-γ, 24 hours
Procedure: RAW 264.7 macrophages were grown in flat-bottomed flasks using a standard growth medium (DMEM supplemented with 5% FBS, antibiotics and glutamine. The cells were maintained in accordance with standard procedures well known in the art. After the cells reached confluence, they were removed from the flasks using mechanical means and then concentrated by centrifuging and resuspended in a small volume of fresh culture medium. The cell concentration was adjusted with growth medium in order that about 75,000 cells could be added to each well of a 96-well plate. A combination of 25 μg/mL LPS and 10 U/ml IFN-γ DMEM, was used for activation of the macrophages. The various test agents were added to the wells one hour prior to activation. The cells were then incubated for a further 24 hours, prior to assaying the inflammatory mediator production and cell viability. A sandwich ELISA was used to determine TNF-α concentration. The primary antibody was used at a concentration of 0.5 μg/mL in PBS. Serial dilutions of TNF-α standard from 0 to 1000 pg/mL in diluent (0.05% Tween-20, 0.1% BSA in PBS) were used as internal standard. TNF-α was detected with a biotinylated second antibody and an avidin peroxidase conjugate with TMB as detection reagent. The color development was monitored at 655 nm, taking readings after every 5 minutes. After 25 minutes, the reaction was stopped using 0.5 M sulphuric acid and the absorbance was measured at 450 nm.

[7] = system: RAW 264.7 macrophages; assay: Cell viability, Alamar Blue assay; type: cell-based
Procedure: RAW 264.7 macrophages were grown in flat-bottomed flasks using a standard growth medium (DMEM supplemented with 5% FBS, antibiotics and glutamine. The cells were maintained in accordance with standard procedures well known in the art. After the cells reached confluence, they were removed from the flasks using mechanical means and then concentrated by centrifuging and resuspended in a small volume of fresh culture medium. The cell concentration was adjusted with growth medium in order that about 75,000 cells could be added to each well of a 96-well plate. A combination of 25 μg/mL LPS and 10 U/ml IFN-γ DMEM, was used for activation of the macrophages. The various test agents were added to the wells one hour prior to activation. The cells were then incubated for a further 24 hours, prior to assaying the inflammatory mediator production and cell viability.
The Alamar Blue assay of viability was performed by adding 100 μl of a 10% Alamar Blue solution to each well and incubating at 37° C. for 1-2 hr. Fluorescence was measured (excitation at 545 nm and emission at 595 nm) and expressed as a percentage of the values in untreated control cells.

[8] = system: Clavibacter michiganensis sp. Michiganensis (Cmm); assay: Survival of Cmm after co-incubation in test tubes, colony count; type: cell-based; conditions: Example 12, contact time 3 days
Procedure: Various combinations of a 3% Rhizobium sp. preparation together with an emulsion containing 5 activating agents (E-91) or one of the components of said emulsion (naringin) and a culture of the plant pathogen Cmm (10^5-10^6 CFU/ml final concentration) were incubated in test tubes for up to 3 days (4 replicates per combination). At the end of the 3 day incubation period the contents of the test tubes containing all these components were plated on to growth medium and the numbers of colonies of Cmm and Rhizobium species for each test condition (CFU/ml) were measured.
The emulsion containing the 5 activating agents (Sclaerol, Naringin, Nootkatone, Stevia and CBD; referred to in the results table hereinbelow as 5% plant emulsion E-91) was prepared as described in Example 6, hereinabove.
This study was conducted in essentially the same manner as the study presented in Example 12. In the present study, however, the effect of the 5-component activating agent emulsion (5% plant emulsion E91) is compared with the following combinations of activating agents: […]

[9] = at the IC50 for inhibition of NO production
[10] = at the IC50 for inhibition of TNF-α production

SMILES: NC(N)=O [A. Positive control - full nitrogen, urea]
Total plant weight (10 plants) ([1]; 10 plants): 11.81 kg | Mean cob weight (10 plants) ([1]; cobs from the main stems of 10 plants): 3.96 kg | Mean Plant stem caliber ([1]; maize): 37.2 mm | Mean leaf width ([1]; maize): 10.5 cm | Plant height ([1]; mean of 10 plants): 2.72 m | AVERAGE N2 CONTENT (total leaf nitrogen) [2]: 3.16 | Average wheat grain yield ([3]; from each of 6 2 m plots): 1.11 kg | Flag leaf width ([3]; wheat): 2.0 cm | Main shoot diameter ([3]; wheat): 0.42 cm | No. of side shoots ([3]; wheat): 1.3 | Average nitrogen content, flag leaves ([3]; wheat flag leaf): 2.94

SMILES: C=C(C)[C@@H]1CCC(C)=C[C@H]1c1c(O)cc(CCCCC)cc1O [Cannabidiol (CBD; hemp oil), cannabidiol]
Protection of tomato plants (inoculation index 0=healthy, 5=dead) [4]: highly active even when present as the sole activating agent

SMILES: C[C@@H]1O[C@@H](O[C@H]2[C@H](Oc3cc(O)c4c(c3)O[C@H](c3ccc(O)cc3)CC4=O)O[C@H](CO)[C@@H](O)[C@@H]2O)[C@H](O)[C@H](O)[C@H]1O [Naringin]
IC50 [5]: 40 µg/mL | IC50 [6]: 90 µg/mL | Cell viability (% of cell survival) [7, 9]: 90.10 ± 4.2% | Cell viability (% of cell survival) [7, 10]: 91.50 ± 5.2% | Cmm count, MEAN ([8]; mean of 4 replicates): 7.75 × 10^5 CFU/ml | Cmm count, individual replicates ([8]; replicates 1-4, listed as Cmm + 0.1% Naringin): 6.5 × 10^5 CFU/ml and 8.3 × 10^5 CFU/ml and 7.7 × 10^5 CFU/ml and 8.6 × 10^5 CFU/ml

SMILES: C=C[C@](C)(O)CC[C@@H]1[C@@]2(C)CCCC(C)(C)[C@@H]2CC[C@@]1(C)O [Sclareol]
IC50 [5]: 40 µg/mL | IC50 [6]: 80 µg/mL | Cell viability (% of cell survival) [7, 9]: 96.20 ± 2.1% | Cell viability (% of cell survival) [7, 10]: 95.30 ± 2.2%

IC50 [6]: 80 µg/mL
SMILES: C=C1C[C@@]23CC[C@H]4[C@@](C)(CCC[C@@]4(C)C(=O)O)[C@@H]2CC[C@]1(O)C3 [Steviol]
